Where two headings read alike, the source gives them in different places. *1 amine or outer side, *2 acyl side, *3 side chain or, on linkers, in order; H or OH if unused. Where a SMILES comes first, the peptide text is derived from it. Bridges are numbered along the chain shown (N, C = ends). X1 = COc1ccc(C2=C3C=C(S(=O)(=O)O)C([*:2])=[N+]3[B-](F)(F)n3c2cc(S(=O)(=O)O)c3[*:1])cc1; X2 = COc1ccc(C2=C3C=C(S(=O)(=O)O)C([*:1])=[N+]3[B-](F)(F)n3c2cc(S(=O)(=O)O)c3[*:2])cc1
Key:
[1] = target: TrkA-expressing cells (HeLa+A) (UniProt P04629); experiment: Cell survival assay in serum-free media, TrkA-expressing cells (HeLa+A); type: cell-based; settings: Figure 8 summary
Sequence of TrkA-expressing cells (HeLa+A) (P04629 33-796): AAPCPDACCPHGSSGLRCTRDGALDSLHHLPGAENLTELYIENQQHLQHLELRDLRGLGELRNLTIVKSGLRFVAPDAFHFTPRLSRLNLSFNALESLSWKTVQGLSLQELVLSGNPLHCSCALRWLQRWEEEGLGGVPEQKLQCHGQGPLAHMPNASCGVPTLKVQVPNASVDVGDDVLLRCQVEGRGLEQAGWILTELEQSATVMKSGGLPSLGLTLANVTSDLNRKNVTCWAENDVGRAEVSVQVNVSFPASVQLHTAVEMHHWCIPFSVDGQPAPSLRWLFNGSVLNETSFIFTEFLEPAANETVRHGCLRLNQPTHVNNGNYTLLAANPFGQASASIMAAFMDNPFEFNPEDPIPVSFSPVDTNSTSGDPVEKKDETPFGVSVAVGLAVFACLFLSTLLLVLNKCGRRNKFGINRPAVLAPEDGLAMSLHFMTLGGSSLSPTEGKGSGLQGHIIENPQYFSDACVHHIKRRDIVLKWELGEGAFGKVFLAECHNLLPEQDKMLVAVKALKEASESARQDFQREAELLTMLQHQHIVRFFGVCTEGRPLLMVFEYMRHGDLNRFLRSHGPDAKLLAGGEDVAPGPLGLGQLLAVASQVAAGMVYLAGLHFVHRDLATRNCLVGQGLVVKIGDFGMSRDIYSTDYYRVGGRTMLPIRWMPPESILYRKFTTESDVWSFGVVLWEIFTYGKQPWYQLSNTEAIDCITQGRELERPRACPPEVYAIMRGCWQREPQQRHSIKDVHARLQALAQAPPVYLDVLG
Procedure: Cells were seeded at a density of 2 × 10^3 cells/well in complete media in 96-well plates and incubated for 24 h to allow cells to adhere. Cells were washed with DPBS, and then, media were swapped for serum-free media of the same type as the complete media. […] Cells were suspended and live cells counted using flow cytometry (CytoFLEX LX).

[2] = tested on: pAKT in PC12 (TrkA+) cells; experiment: ELFI, pAKT signaling in PC12 cells, competition with NT; type: cell-based, rat; settings: competed with 10 ng/mL NT, 1 h
Procedure: (§1) Throughout, the positive control was concentration-dependent treatment with the parent NT in half-log dilutions from 100 ng/mL to 0.1 ng/mL, and the negative control was to treat the cells with only DMSO. We first determined Z′ factors[83] based on these boundary controls. Once the assays had been validated (Z′ > 0.5), we determined optimal times to fix cells after treatment (taking into account potential differences in the kinetics of Trk activation between small molecules and neurotrophins), mimicked dose ranges, and then performed dose response studies.
(§2) Assays were conducted as previously reported.[36] Trk-positive cells (PC12, HEK293-TrkB, and NIH3T3-TrkC) were seeded at a density of 2 × 10^4 cells per well in poly-D-lysine (PDL)-coated 96-well white flat-bottomed plates and allowed to adhere for 24 h. Cells were washed once with SFM and then incubated for 1–2 h in SFM. A serial dilution of compound and/or NT was added, and the cells were incubated for 15 min (agonism experiments) or 1 h (antagonism). […] Cells were washed 6× with WB, and then, levels of phosphorylation were quantified using SuperSignal ELISA Pico Chemiluminescent Substrate (Thermo Scientific). […] IC50 is calculated for 5c(ii) using the {inhibitor} vs response – variable slope (four parameters) function in GraphPad Prism 10.2.

pAKT in NIH+C cells = experiment: ELFI, pAKT signaling in NIH+C cells, competition with NT; type: cell-based; settings: competed with 10 ng/mL NT, 1 h
Procedure: as §1, §2

[3] = tested on: pMAPK in PC12 (TrkA+) cells; experiment: ELFI, pMAPK signaling in PC12 cells, competition with NT; type: cell-based, rat; settings: competed with 10 ng/mL NT, 1 h
Procedure: as §1, §2

pMAPK in NIH+C cells = experiment: ELFI, pMAPK signaling in NIH+C cells, competition with NT; type: cell-based; settings: competed with 10 ng/mL NT, 1 h
Procedure: as §1, §2

[4] = tested on: primary adult cortical neurons; experiment: Primary adult cortical neuron assay (neurite outgrowth and survival); type: cell-based, mouse; settings: 5 μM, neurons from 6-week-old male mice
Description: We next decided to test the effects of 5c(ii) on primary mouse adult cortical neurons. These neurons naturally express TrkA[84] and therefore provide a more clinically relevant substrate to test compound leads in than analogous Trk-expressing transfectants. In addition, using neurons extracted from adult mice provide increased relevance to neurodegenerative and other nervous-system related diseases and injury, since most of these primarily occur in adult populations.[85],[86] To determine any potential for preclinical applications, 5c(ii) (5 μM) was incubated with primary cortical neurons from 6-week-old male mice at the time of plating, and neuronal survival and neurite outgrowth were quantified.
Figure 7 5c(ii) promotes neuroprotection. Primary adult cortical neurons were extracted from 6-week-old male mice and plated on 384-well PDL-coated plastic bottom plates at 10,000 cells/well. 5c(ii) at 5 μM concentration was added at the time of plating. 48 h after plating, the cells were fixed to conduct immunocytochemistry. Graph represents the mean ± SEM of (a) total neurite outgrowth per cell and (b) number of valid neurons per well. Representative images of cortical neurons treated with (c) vehicle and (d) 5 μM 5c(ii). Student’s t test. N = 3–5. *p < 0.05.
Cortical neuron assay was conducted as previously described.[85] Briefly, wild-type 6-week-old C57Bl/6 male mice were euthanized using CO2, and the brains were removed. The cortex was isolated and transferred to a MACS C-tube and then dissociated using the Miltenyi gentleMACS octo-dissociator on a preset protocol designed for adult rodent brains. […] Images were quantified using the Neurite Outgrowth Analysis Module in MetaXpress 6 software (Molecular Devices). For quantification, the number of valid neurons is determined by quantifying the number of TUBB3^+/DAPI^+ cells in a well with ≥10 μm of total neurite outgrowth. Total neurite outgrowth is determined by dividing the length of all neurites in a well by the number of valid neurons in that respective well. […]

[5] = set-up: method as in PMID 34451801; settings: lack of selectivity; cited from earlier work
[6] = target: TrkB-expressing cells (HEK+B) (UniProt Q16620); experiment: Cell survival assay in serum-free media, TrkB-expressing cells (HEK+B); type: cell-based; settings: normalized to DMSO (0%) and 1.0 nM BDNF (100%)
Sequence of TrkB-expressing cells (HEK+B) (Q16620 32-822): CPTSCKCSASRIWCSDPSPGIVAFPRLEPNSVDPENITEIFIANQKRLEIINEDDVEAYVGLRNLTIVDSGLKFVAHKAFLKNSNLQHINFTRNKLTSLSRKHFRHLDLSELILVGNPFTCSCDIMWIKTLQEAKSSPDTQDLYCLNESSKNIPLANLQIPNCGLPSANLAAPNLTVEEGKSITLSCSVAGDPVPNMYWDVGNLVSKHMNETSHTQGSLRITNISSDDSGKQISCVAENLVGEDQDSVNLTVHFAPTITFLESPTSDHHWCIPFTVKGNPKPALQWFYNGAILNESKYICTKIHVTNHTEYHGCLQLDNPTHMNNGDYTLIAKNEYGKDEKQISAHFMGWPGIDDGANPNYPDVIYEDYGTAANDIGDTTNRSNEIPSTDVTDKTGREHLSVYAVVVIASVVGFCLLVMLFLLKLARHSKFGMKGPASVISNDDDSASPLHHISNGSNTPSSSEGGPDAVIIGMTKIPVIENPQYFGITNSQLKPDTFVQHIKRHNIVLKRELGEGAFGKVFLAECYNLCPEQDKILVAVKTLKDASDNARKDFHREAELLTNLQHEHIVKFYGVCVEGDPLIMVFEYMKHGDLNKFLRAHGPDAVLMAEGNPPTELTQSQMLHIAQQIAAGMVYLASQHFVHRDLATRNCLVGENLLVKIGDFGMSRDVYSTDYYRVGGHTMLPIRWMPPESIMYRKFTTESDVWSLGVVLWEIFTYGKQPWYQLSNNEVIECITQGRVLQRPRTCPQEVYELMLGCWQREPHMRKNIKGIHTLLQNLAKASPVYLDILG
Procedure: Loop mimics 5 were screened in cell survival assays to evaluate their efficacy in stimulating Trk receptors (Figure 2). Mimics were assayed for the ability to rescue cells from cell death when incubated in serum-free media (SFM) in the absence of NTs (a test for “agonism”) or in the presence of a suboptimal NT concentration (a test for NT “modulation”). Simultaneously, these assays may confirm test mimics are not cytotoxic at lower doses (though cytotoxicity assays were also performed up to higher doses, Figure S1). […] All the test compounds were screened at 50 μM concentrations initially, and then, dose response curves were measured for the hits (Table 1 and Figure 3).
We were forced to use transfectants in different cell lines (HeLa, HEK-293, NIH-3T3 expressing TrkA, B, and C, respectively) due to difficulties in obtaining transfected cells derived from a single wild type; however, none of the cells used express TrkA-C prior to transfection. Throughout this paper, HeLa cells are denoted as “HeLa”, and their TrkA transfectants are “HeLa+A”. Similarly, HEK-293 cells are “HEK”; their TrkB transfectants are HEK+B. NIH-3T3 cells are “NIH”, and their TrkC transfectants are “NIH+C”.
Cells were seeded at a density of 2 × 10^3 cells/well in complete media in 96-well plates and incubated for 24 h to allow cells to adhere. Cells were washed with DPBS, and then, media were swapped for serum-free media of the same type as the complete media. Cells were then treated with 50 μM compound either alone or in conjunction with suboptimal neurotrophin corresponding to the Trk receptor expressed for 48 h. Cells were washed with DPBS buffer twice and detached from the plate with 50 μL of trypsin for 3 min at 37 °C. Trypsinization was quenched with 100 μL of complete media. Cells were suspended and live cells counted using flow cytometry (CytoFLEX LX). Cell survival was normalized from cell count (CC) readings relative to optimal neurotrophin (NT = 100%) and DMSO (0%) utilizing GraphPad Prism 10.2, followed by statistical analysis via one-way ANOVA and Dunnett’s t test compared to the DMSO control. Dose response versions of this assay were conducted following the same procedure, but the data was analyzed in GraphPad Prism 10.2 using the nonlinear fit: {agonist} vs response – variable slope (four parameters) function.

TrkB (HEK293-TrkB cells) = target: T1, TrkB (HEK293-TrkB cells) (Homo sapiens, UniProt Q16620); experiment: Cell-surface fluorescence binding to live HEK293-TrkB cells; settings: HEK293-TrkB minus HEK293 wild-type fluorescence, 2.5 h
T1 construct: expressed in transfected cells; host or cells: HEK293
Description: Binding of the selective, intrinsically fluorescent mimics to cells can be observed and quantitated via fluorescence. Raw data includes fluorescence associated with material not removed in the washing step (sticky, nonselective binding), and if there were binding to any receptors other than Trk, then fluorescence would be observed for this too. In a second experiment, fluorescence associated with the wild-type cells without Trk expression was similarly recorded to provide a baseline correction representative of that nonselective binding, plus affinity to non-Trk receptors if that occurred. Consequently, fluorescence observed in the noncompetitive experiment minus that in the one using Trk-negative cell lines represents a minimum associated with binding to the expressed Trk receptor. […]
Trk-positive transfected cell lines (HeLa-TrkA, HEK293-TrkB, and NIH3T3-TrkC) and Trk-negative cell lines (HeLa, HEK293, and NIH3T3) were seeded at a density of 2 × 10^3 cells/well in 96-well plates and incubated for 24 h to allow them to adhere. […] Cell associated fluorescence was then determined by measuring emission of the resulting solution on a plate reader (BioTek Synergy H4 Hybrid Reader), λex (540/25 nm) and λem (620/40 nm). […]

COc1ccc(C2=C3C=C(S(=O)(=O)O)C4=[N+]3[B-](F)(F)n3c2cc(S(=O)(=O)O)c3SC[C@H](NC(C)=O)C(=O)N[C@@H]([C@@H](C)O)C(=O)N[C@@H](CCC(N)=O)C(=O)N[C@@H](CC(N)=O)C(=O)N[C@@H](CO)C(=O)N[C@H](C(N)=O)CS4)cc1 [5c(ii)] (Ac-CTQNSC-NH2; linker 1-6 via X1; N-terminus and C-terminus assumed)
result (Trk activity assigned) [1]: TrkA modulator | IC50 [2]: 7 µM | IC50 (pAKT in NIH+C cells): 7 µM | IC50 [3]: 7 µM | IC50 (pMAPK in NIH+C cells): 35 µM | change in neurite outgrowth ([4]; 48 h): no significant change | increase in the number of valid neurons ([4]; after 48 h, vs vehicle): over 50%

O=c1cc(-c2ccccc2)oc2c(O)c(O)ccc12 [7,8-DHF, 7,8-Dihydroxyflavone]
number of targets bound [5]: 133

COc1ccc(C2=C3C=C(S(=O)(=O)O)C4=[N+]3[B-](F)(F)n3c2cc(S(=O)(=O)O)c3SC[C@@H](C(N)=O)NC(=O)CNC(=O)[C@H](CO)NC(=O)[C@H](CCSC)NC(=O)[C@H](CC(=O)O)NC(=O)[C@@H](NC(C)=O)CS4)cc1 [5b(i)] (Ac-CDMSGC-NH2; linker 1-6 via X2)
EC50 ([6]; cell survival with 0.6 nM BDNF, read-out: EC50 (μM) with suboptimal neurotrophin): 1.8 µM | EC50 ([6]; dose-dependent cell survival without NT, read-out: EC50): 0.4 µM | Kd (TrkB (HEK293-TrkB cells)): 73 ± 13 nM

— PMC11487604, “Selective, Intrinsically Fluorescent Trk Modulating Probes” (ACS Chemical Neuroscience, 2024)
